Assay results from PubChem BioAssay (NCI).
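Assay format: 96-well plates, 48-hour exposure. TGI is the concentration that stops growth completely.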 Where a SMILES comes first, the peptide text is derived from it. [ ]: non-standard residue; d: D form. pGlu = O=C1CC[CH](C(=O)O)N1; Thz = O=C(O)[CH]1CSCN1

What was measured:
Assay in all cases: NCI tumour cell line growth inhibition, 48 h
DU-145 prostate = tested on: DU-145 prostate
HCT-116 colon = tested on: HCT-116 colon
HOP-62 NSCLC = tested on: HOP-62 NSCLC
LOX IMVI melanoma = tested on: LOX IMVI melanoma
MDA-MB-435 = tested on: MDA-MB-435
RPMI-8226 leukemia = tested on: RPMI-8226 leukemia
SF-295 CNS = tested on: SF-295 CNS
SK-MEL-2 melanoma = tested on: SK-MEL-2 melanoma
SK-MEL-28 melanoma = tested on: SK-MEL-28 melanoma
SK-MEL-5 melanoma = tested on: SK-MEL-5 melanoma
SW-620 colon = tested on: SW-620 colon
OVCAR-3 ovarian = tested on: OVCAR-3 ovarian

Row | Compound | TGI (DU-145 prostate) [µM] | TGI (HCT-116 colon) [µM] | TGI (HOP-62 NSCLC) [µM] | TGI (LOX IMVI melanoma) [µM] | TGI (MDA-MB-435) [µM] | TGI (RPMI-8226 leukemia) [µM] | TGI (SF-295 CNS) [µM] | TGI (SK-MEL-2 melanoma) [µM] | TGI (SK-MEL-28 melanoma) [µM] | TGI (SK-MEL-5 melanoma) [µM] | TGI (SW-620 colon) [µM] | TGI (OVCAR-3 ovarian) [µM]
1 | CCOC(=O)c1c(O)cn2c1[nH]c1cccc3cccc2c31 | > 100 | > 100 | > 100 | > 100 | > 100 | > 100 | > 100 | > 100 | > 100 | > 100 | > 100 | 
2 | CC1C(C)(C)C23CC12C1(OCCO1)C3Br (stereo not given) | > 100 | > 100 | > 100 | > 100 | > 100 | > 100 | > 100 |  | > 100 | > 100 | > 100 | > 100
3 | Cc1nc2c(c(N3CCN(C)CC3)n1)Cc1ccccc1-2 | > 100 | > 100 |  |  | > 100 | > 100 | > 100 | > 100 |  | > 100 | > 100 | 
4 | C=C(/C=C/C=C(\C)CCC=C(C)C)[C@@H]1CC[C@]2([C@H](CCCO)/C(=C(/C)C=O)CC[C@]2(C)O)[C@@H]1O |  |  |  | 31.9 |  |  | 44 | 38.5 | 28.4 | 53.1 | 40.7 | 
5 | COc1ccc(S(=O)(=O)Nc2ccc(-c3csc(N4C(=O)/C(=C/c5ccccc5[N+](=O)[O-])N=C4c4ccccc4)n3)cc2)cc1Cl | > 100 | > 100 | > 100 | > 100 | > 100 |  | > 100 | > 100 | > 100 | > 100 | > 100 | > 100
6 | O=C1CCC(C(=O)N2CSCC2C(=O)O)N1 (stereo not given) ([pGlu]-[Thz]-OH; configuration not given here) | > 100 |  | > 100 | > 100 | > 100 | > 100 | > 100 | > 100 | > 100 | > 100 | > 100 | > 100
7 | COC(=O)C1=C(C)NC(=O)N2[C@@H](CCOCc3ccccc3)CC[C@@H]12 | > 50 |  | > 50 | > 50 | > 50 | > 50 | > 50 | > 50 | > 50 | > 50 | > 50 | > 50
8 | Cc1c(NC(=S)Nc2ccc([N+](=O)[O-])cc2)c(=O)n(-c2ccccc2)n1C | > 100 | > 100 | > 100 | > 100 | > 100 | > 100 | > 100 |  | > 100 | > 100 | > 100 | > 100
9 | O=C1c2ccccc2N(O)C1(c1ccccc1)C1CCCC=C1N1CCOCC1 (stereo not given) |  | > 100 | > 100 | > 100 |  | > 100 | > 100 |  | > 100 | > 100 | > 100 | > 100
10 | Cc1cn(C2CC(n3cc(Cn4ccc(=O)[nH]c4=O)nn3)C(CO)O2)c(=O)[nH]c1=O (stereo not given) | > 100 | > 100 | > 100 |  | > 100 | > 100 | > 100 | > 100 | > 100 | > 100 | > 100 | > 100
11 | S=P1(Sc2ccccc2)Oc2ccc3ccccc3c2-c2c(ccc3ccccc23)O1 |  | > 100 | > 100 | > 100 |  | > 100 | > 100 | > 100 | > 100 | > 100 | > 100 | > 100
12 | COc1ccc(C2CC(c3c(O)ccc4ccccc34)=NN2)cc1OC (stereo not given) | 36.1 |  | 17.5 |  | 11.6 | 65 | 17.6 | 30.9 |  | 12.6 |  | 20.6
13 | Cc1ccc(S(=O)(=O)n2cc(C=O)c(-c3cn(S(=O)(=O)c4ccc(C)cc4)cc3-c3cn(S(=O)(=O)c4ccc(C)cc4)cc3C=O)c2)cc1 | > 100 | > 100 | > 100 | 74.4 | > 100 | > 100 | > 100 | > 100 |  | > 100 | > 100 | > 100
14 | CC(C)C1CSC2N1C(=O)C2(OCc1ccccc1)C1CC1 (stereo not given) | > 100 | > 100 | > 100 | > 100 | > 100 | > 100 | > 100 |  | > 100 | > 100 | > 100 | > 100
15 | CC(C)(C)c1ccc2c(c1)OP1(Oc3c(Cl)cc(Cl)c4cccnc34)(O2)Oc2ccc(C(C)(C)C)cc2O1 |  | 17.4 | 20 | 19.2 |  | 19 | 32.1 | 22.8 | 28.4 | 22.1 | 23.5 | 13.3
16 | Cc1ccc2nc3ccccc3c(C3C4C(=O)N(c5ccc(F)cc5)C(=O)C4ON3C(C(N)=O)c3ccccc3)c2c1 (stereo not given) | > 100 | > 100 | > 100 | > 100 | 99 | 77.6 | > 100 | > 100 | > 100 |  | > 100 | 71.6
17 | CCOC(=O)C12CCC(=O)N1N(C)c1ncccc1N2 (stereo not given) | > 100 | > 100 | > 100 | > 100 | > 100 | > 100 | > 100 |  | > 100 | > 100 | > 100 | > 100
18 | NCC(=O)Nc1ccccc1 | > 100 | > 100 | > 100 | > 100 | > 100 |  | > 100 | > 100 | > 100 | > 100 | > 100 | > 100
19 | CCCCSC1=N/C(=C\c2ccccc2O)C(=O)N1 | > 100 | > 100 | > 100 | > 100 | > 100 | > 100 | > 100 | > 100 | > 100 |  | > 100 | > 100
20 | O=P1(c2ccccc2)C(c2ccccc2)CCC1c1ccccc1 (stereo not given) | > 100 | > 100 | > 100 | > 100 | > 100 | 78.2 | > 100 |  | > 100 | > 100 | > 100 | > 100
